Test results as given in EP3685668B1, “COMPOSITION COMPRISING ACIBENZOLAR-S-METHYL AS EFFECTIVE INGREDIENT FOR CONTROLLING BURSAPHELENCHUS XYLOPHILUS DISEASE AND METHOD FOR CONTROLLING BURSAPHELENCHUS XYLOPHILUS USING SAME” (Industry Foundation of Chonnam National University, priority 2017, dated 2019).

Columns and labels:
Assay in all cases: qRT-PCR expression of induced resistance gene in pine tree callus
Assay type in all cases: cell-based
PR_2 family = conditions: for Expression of induced resistance gene, PR_2 family: 24 hours
Procedure: (§1) For in vitro analysis of induced resistance, the expression of PR genes and other plant defense-related genes was determined, which are evolved in various defense mechanisms including induced resistance. The primers of sixteen induced resistance-related genes of pine tree used in this invention were listed in the below and elongation factor_1 alpha were used as a reference gene. [Table 4] The primer list of defense resistance-related genes
(§2) After the treatment with 200 µg / mℓ of candidates of the selected induced resistance material, expression of the induced resistance-related gene in pine callus was determined by qRT-PCR using the primer pairs of defense resistance-related genes in Table 4. As a candidate group of an induced resistance material in pine tree, acibenzolar-S-methyl (ASM), TDL (Tiadinil), ITL (Isotianil), PBZ (Probenzole), AZO (Azoxystrobin), VMA (Validamycin A), MeJA (Methyl jasmonate), BABA (DL-3-aminobutyric acid), 2,3-BDO (2,3-Butanediol), GABA (r-Aminobutyric acid), glucan (Glucan), ER (Ergosterol), and AZA (Azelaic acid) were used. For the in vitro analysis of the expression of induced resistance gene in pine callus, the selected induced resistance materials were applied with 500 µℓ of LM liquid medium on a surface of pine tree callus (100 mg) in 12-well microplate to give final concentration of 200 µg/mℓ. Then, the callus surface was sufficiently reacted for 24 hours with the candidate of pine tree induced resistance material by shaking at 50 rpm in a 25 °C shaking incubator under dark condition. RNAs were extracted from the callus after completion of the reaction with an induced resistance material, followed by synthesis of cDNAs. Then, by carrying out qRT-PCR, the expression of induced resistance genes was determined. [Table 5] Expression of induced resistance gene in pine tree callus by TDL, PBZ, ASM, ITL, AZO, VMA, glucan, and AZA
(§3) Based on the results of assay using young plants and gene expression by selected induce resistance materials, it seemed that acibenzolar-S-methyl had the most excellent effect. Thus, the following tests were carried out using acibenzolar-S-methyl only. Expression of the induced resistance genes at different culture time after the chemical treatment was examined. For the in vitro assay, LM medium containing pine tree callus was treated with acibenzolar-S-methyl at concentration of 200 µg / mℓ, followed by reaction for 1 day, 7 days, or 14 days in a 25°C shaking incubator under dark condition. RNAs were extracted from the callus after the reaction followed by synthesis of cDNAs. Then, by carrying out qRT-PCR, the expression of the induced resistance genes was determined. Depending on reaction time after the treatment, i.e., after 1 day, 7 days, or 14 days, the expression of the obtained induced resistance genes was examined. As a result of the in vitro callus assay depending on reaction time after the treatment with acibenzolar-S-methyl, the expression of the induced resistance-related genes is the highest at 1 day after the treatment with acibenzolar-S-methyl and gradually diminished over time, as it is shown in Table 7. In this regard, it is contemplated that the expression of genes acquired by acibenzolar-S-methyl is not maintained in highly expressed state until the pathogen invasion and just memorized with at minimum level so that the energy consumption by plant can be efficiently managed. [Table 7] Expression of induced resistance gene in pine tree callus by acibenzolar-S-methyl depending on reaction time
(§4) To have an in vitro assay according to different methods of treatment with acibenzolar-S-methyl, two separate treatment methods, i.e., surface treatment (spraying treatment) of pine tree callus and direct application of the induced resistance material to an LM medium containing pine tree callus, were performed. […]

PR_3 family class 1 = conditions: for Expression of induced resistance gene, PR_3 family class 1: 24 hours
Procedure: as §1, §2, §3, §4

PR_3 family class 4 = conditions: for Expression of induced resistance gene, PR_3 family class 4: 24 hours
Procedure: as §1, §2, §3, §4

PR_4 family = conditions: for Expression of induced resistance gene, PR_4 family: 24 hours
Procedure: as §1, §2, §3, §4

PR_5 family = conditions: for Expression of induced resistance gene, PR_5 family: 24 hours
Procedure: as §1, §2, §3, §4

PR_9 family = conditions: for Expression of induced resistance gene, PR_9 family: 24 hours
Procedure: as §1, §2, §3, §4

Xyloglucan = conditions: 200 µg/mℓ; for Expression of induced resistance gene, Xyloglucan: 24 hours
Procedure: as §1, §2, §3, §4

[1] = 200 µg/mℓ, Direct supplying as a medium component
[2] = concentration series, 200 µg/mℓ

CSC(=O)c1cccc2nnsc12 [ASM, acibenzolar-S-methyl]
Expression of induced resistance gene, PR_2 family (PR_2 family; 200 µg/mℓ): 1.65
Expression of induced resistance gene, PR_2 family (PR_2 family; [1]): 5.5
Expression of induced resistance gene, PR_2 family (PR_2 family; 200 µg/mℓ, Spraying): 1.65
Gene expression level, PR_2 family (PR_2 family; 200 µg/mℓ, After 1 day): 5.5
Gene expression level, PR_2 family (PR_2 family; 200 µg/mℓ, After 7 days): 0.97
Gene expression level, PR_2 family (PR_2 family; 200 µg/mℓ, After 14 days): 0.42
Gene expression level, PR_2 family (PR_2 family; concentration series, 20 µg/mℓ): 2.694
Gene expression level, PR_2 family (PR_2 family; [2]): 1.117
Expression of induced resistance gene, PR_3 family class 1 (PR_3 family class 1; 200 µg/mℓ): 2.04
Expression of induced resistance gene, PR_3 family class 1 (PR_3 family class 1; [1]): 2.85
Expression of induced resistance gene, PR_3 family class 1 (PR_3 family class 1; 200 µg/mℓ, Spraying): 2.04
Gene expression level, PR_3 family class 1 (PR_3 family class 1; 200 µg/mℓ, After 1 day): 2.85
Gene expression level, PR_3 family class 1 (PR_3 family class 1; 200 µg/mℓ, After 7 days): 1.38
Gene expression level, PR_3 family class 1 (PR_3 family class 1; 200 µg/mℓ, After 14 days): 0.29
Gene expression level, PR_3 family class 1 (PR_3 family class 1; concentration series, 20 µg/mℓ): 3.506
Gene expression level, PR_3 family class 1 (PR_3 family class 1; [2]): 3.605
Expression of induced resistance gene, PR_3 family class 4 (PR_3 family class 4; 200 µg/mℓ): 3.86
Expression of induced resistance gene, PR_3 family class 4 (PR_3 family class 4; [1]): 11.96
Expression of induced resistance gene, PR_3 family class 4 (PR_3 family class 4; 200 µg/mℓ, Spraying): 3.86
Gene expression level, PR_3 family class 4 (PR_3 family class 4; 200 µg/mℓ, After 1 day): 11.96
Gene expression level, PR_3 family class 4 (PR_3 family class 4; 200 µg/mℓ, After 7 days): 7.67
Gene expression level, PR_3 family class 4 (PR_3 family class 4; 200 µg/mℓ, After 14 days): 0.86
Gene expression level, PR_3 family class 4 (PR_3 family class 4; concentration series, 2 µg/mℓ): 32.22
Gene expression level, PR_3 family class 4 (PR_3 family class 4; concentration series, 20 µg/mℓ): 42.52
Gene expression level, PR_3 family class 4 (PR_3 family class 4; [2]): 24.93
Expression of induced resistance gene, PR_4 family (PR_4 family; 200 µg/mℓ): 2.6
Expression of induced resistance gene, PR_4 family (PR_4 family; [1]): 5.46
Expression of induced resistance gene, PR_4 family (PR_4 family; 200 µg/mℓ, Spraying): 2.6
Gene expression level, PR_4 family (PR_4 family; 200 µg/mℓ, After 1 day): 5.46
Gene expression level, PR_4 family (PR_4 family; 200 µg/mℓ, After 7 days): 0.74
Gene expression level, PR_4 family (PR_4 family; 200 µg/mℓ, After 14 days): 0.2
Gene expression level, PR_4 family (PR_4 family; concentration series, 2 µg/mℓ): 2.25
Gene expression level, PR_4 family (PR_4 family; concentration series, 20 µg/mℓ): 2.056
Gene expression level, PR_4 family (PR_4 family; [2]): 1.24
Expression of induced resistance gene, PR_5 family (PR_5 family; 200 µg/mℓ): 2.93
Expression of induced resistance gene, PR_5 family (PR_5 family; [1]): 5.9
Expression of induced resistance gene, PR_5 family (PR_5 family; 200 µg/mℓ, Spraying): 2.93
Gene expression level, PR_5 family (PR_5 family; 200 µg/mℓ, After 1 day): 5.9
Gene expression level, PR_5 family (PR_5 family; 200 µg/mℓ, After 7 days): 0.45
Gene expression level, PR_5 family (PR_5 family; 200 µg/mℓ, After 14 days): 0.17
Gene expression level, PR_5 family (PR_5 family; concentration series, 2 µg/mℓ): 4
Gene expression level, PR_5 family (PR_5 family; concentration series, 20 µg/mℓ): 8.515
Gene expression level, PR_5 family (PR_5 family; [2]): 2.809
Expression of induced resistance gene, PR_9 family (PR_9 family; 200 µg/mℓ): 2
Expression of induced resistance gene, PR_9 family (PR_9 family; [1]): 8.57
Expression of induced resistance gene, PR_9 family (PR_9 family; 200 µg/mℓ, Spraying): 2
Gene expression level, PR_9 family (PR_9 family; 200 µg/mℓ, After 1 day): 1
Gene expression level, PR_9 family (PR_9 family; 200 µg/mℓ, After 7 days): 1
Gene expression level, PR_9 family (PR_9 family; 200 µg/mℓ, After 14 days): 1
Gene expression level, PR_9 family (PR_9 family; concentration series, 2 µg/mℓ): 0.7526
Gene expression level, PR_9 family (PR_9 family; concentration series, 20 µg/mℓ): 0.79
Gene expression level, PR_9 family (PR_9 family; [2]): 0.9526
Expression of induced resistance gene, Xyloglucan (Xyloglucan): 2.36
Expression of induced resistance gene, Xyloglucan (Xyloglucan; Direct supplying as a medium component): 17.51
Expression of induced resistance gene, Xyloglucan (Xyloglucan; Spraying): 2.36
Gene expression level, Xyloglucan (Xyloglucan; After 1 day): 29.86
Gene expression level, Xyloglucan (Xyloglucan; After 7 days): 2.81
Gene expression level, Xyloglucan (Xyloglucan; After 14 days): 1.06
Gene expression level, Xyloglucan (Xyloglucan; concentration series): 37.01
